# How the values were obtained:
# [1] = target: T1, BRD4 (Homo sapiens, UniProt O60885); experiment: Western blot degradation of BRD4 in HEK293 cells; assay type: cell-based; settings: HEK293 cells, 4 h, 0.1 μM to 1 nM, Fig. S2
# T1 construct: BRD2, BRD3 and BRD4 protein levels were measured by western blot; endogenous in cells; host or cells: HEK293 (ATCC)
# Procedure: HEK293, A549, SKOV-3, HCT116 cells (ATCC)were grown in DMEM (Gibco),and all cells were supplemented with 10% (v/v) fetal bovine serum (FBS) (Sigma), 100 mg/mL penicillin/streptomycin solution (Thermo Fisher Scientific) and maintained at 37 °C and 5% CO2 in a humidified atmosphere. All cells used were tested monthly using the Mycoalert
# at 95°C. Proteins were separated by SDS–PAGE (SDS polyacrylamide gel electrophoresis) with 25–40 µg of total protein per well, transferred to 0.2-μm-pore nitrocellulose membranes (BIO-RAD), then blocked in 5%(w/v) milk in PBS and 0.5% Tween-20, and incubated overnight at 4°C with primary antibodies described in section 4.1. Secondary antibodies were added for 1h at room temperature after 3 times washing with blocking buffer. After 6 times of washing
# with PBS (Thermo Fisher Scientific) and 0.5% Tween-20, Blots were detected using the Clarity Western ECL Substrate (BIO-RAD) and visualized on iBright CL 750 (Thermo Fisher Scientific) and images were analyzed using iBright Firmware 1.7.0.
# 4.3.1 Evaluation of the degradation capacity of PROTACs […]
# [2] = test system: HEK293, A549, HCT116 and SKOV-3; experiment: CellTiter-Glo metabolic activity, cell line panel; assay type: cell-based; settings: 48 h
# Procedure: (§1) 4.4 Cell viability assay on 2D cells cultures
# (§2) HEK293, HCT116, A549,andSKOV-3 cells were seeded in 96-well tissue culture plates at a density of 2000-3000 cells per well in 100 µl of growth medium and incubated overnight at 37 °C with 5% CO2. The following day, the cells were treated with various concentrations of compounds or 0.05% DMSO for 48 h. After treatment, add 100 μl of Cell Titer-Glo® 2.0 Reagent (cat. no. G9243, Promega) in each well, then the 96-well plates were put on an orbital shaker for 10 min and then allow the plate to incubate at room temperature for 10-20min to stabilize the luminescent signal. Luminescence readout (Gen5 Data Analysis Software v3.08.01) was performed to record luminescence.
# (§3) (1 picture or pasted object on this page, not shown here)
# [3] = target: T2, CRBN (Homo sapiens, UniProt Q96SW2); experiment: E3 ligase homo-degradation by western blot, CRBN; assay type: cell-based; settings: HEK293 cells, 4 h, 0.1, 1 and 10 μM
# T2 construct: western blot analysis of the levels of CRBN and VHL E3 ligase in cell lysate; endogenous in cells; host or cells: HEK293 (ATCC)
# T2 sequence (Q96SW2 whole entry): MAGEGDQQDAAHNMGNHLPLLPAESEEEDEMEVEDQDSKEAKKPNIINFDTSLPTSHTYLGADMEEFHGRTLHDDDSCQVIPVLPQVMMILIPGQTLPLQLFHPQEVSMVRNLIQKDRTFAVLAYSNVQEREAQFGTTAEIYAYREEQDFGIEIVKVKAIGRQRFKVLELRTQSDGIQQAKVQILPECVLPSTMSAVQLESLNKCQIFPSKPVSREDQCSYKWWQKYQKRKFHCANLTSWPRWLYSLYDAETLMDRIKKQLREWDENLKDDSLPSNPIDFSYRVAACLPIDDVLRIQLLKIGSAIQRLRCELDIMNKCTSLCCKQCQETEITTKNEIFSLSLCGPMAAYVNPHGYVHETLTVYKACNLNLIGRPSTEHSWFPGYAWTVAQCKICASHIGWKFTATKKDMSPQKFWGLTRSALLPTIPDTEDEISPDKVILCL
# Excerpt: (§4) 4. Biological experiments
# (§5) Primary antibodies used for western blotting included anti-human BRD2(1:2000, rabbit monoclonal, Abcam, ab139690), anti-human BRD3 (1:1000, rabbit monoclonal, Abcam, ab264420), anti-human BRD4 (E2A7X) (1:1000, rabbit monoclonal, Cell Signaling Technology, #13440), anti-human VHL (1:1000, rabbit polyclonal, Cell Signaling Technology, #68547), anti-human CRBN (D8H3S) (1:1000, rabbit polyclonal, Cell Signaling Technology, #71810), anti-human alpha Tubulin, clone B-5-1-2 (1:5000, mouse monoclonal, Merck Life Science, # 32-2500).Secondary antibodies used for western blot included: anti-mouse horseradish peroxidase-linked antibody (1:3000, sheep, GE Healthcare Life Sciences, #NA931V), and anti-rabbit horseradish peroxidase-linked antibody (1:8000, donkey, GE Healthcare Life Sciences, #NA934V). Reagent for degradation assay and compounds […]
# dr. Serge Van Calenbergh, Ghent University).
# 4.2 Cell lines and culture
# HEK293, A549, SKOV-3, HCT116 cells (ATCC)were grown in DMEM (Gibco),and all cells were supplemented with 10% (v/v) fetal bovine serum (FBS) (Sigma), […] penicillin/streptomycin solution (Thermo Fisher Scientific) and maintained at 37 °C and 5% CO2 in a humidified atmosphere. All cells used were tested monthly using the Mycoalert Mycoplasma Detection Kit (cat. no. LT07-318, Lonza) to exclude mycoplasma contamination.
# 4.3 Degradation assays by Western blot
# General method of Western blot: Lysates were sonicated and centrifuged at 4 °C at 20000 g for 15 min, and the supernatants were transferred to new tubes. Protein concentration of cell lysates was measured using the DC Protein Assay kit (BIO-RAD) following manufacturer's instructions. Cell lysates were mixed with reducing sample buffer (0.5 M Tris-HCl (pH 6.8), 43% glycerol, 9.2% SDS, 5% 2-mercaptoethanol, 5% bromophenol blue) and boiled for 5 min at 95°C. […]
# (§6) Figure S5 Homo-degradation effect in Dual-ligand PROTACs. […] Subsequently, cell lysates were prepared and the protein levels of CRBN or VHL E3 ligase were assessed by Western blotting. […]
# [4] = target: T3, VHL (Homo sapiens, UniProt P40337); experiment: E3 ligase homo-degradation by western blot, VHL; assay type: cell-based; settings: HEK293 cells, 4 h, 1 μM and 10 μM
# T3 construct: western blot analysis of the levels of CRBN and VHL E3 ligase in cell lysate; endogenous in cells; host or cells: HEK293 (ATCC)
# T3 sequence (P40337 whole entry): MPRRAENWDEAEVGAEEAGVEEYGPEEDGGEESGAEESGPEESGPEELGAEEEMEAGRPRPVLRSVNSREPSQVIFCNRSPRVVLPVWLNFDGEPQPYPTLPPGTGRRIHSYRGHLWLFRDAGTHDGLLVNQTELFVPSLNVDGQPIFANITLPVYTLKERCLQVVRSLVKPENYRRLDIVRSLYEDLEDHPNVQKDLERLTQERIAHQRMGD
# Excerpt: as §4, §5
# dr. Serge Van Calenbergh, Ghent University). […]
# General method of Western blot: Lysates were sonicated and centrifuged at 4 °C at 20000 g for 15 min, and the supernatants were transferred to new tubes. Protein concentration of cell lysates was measured using the DC Protein Assay kit (BIO-RAD) following manufacturer's instructions. […]
# as §6
# [5] = test system: HEK293 cells; experiment: CellTiter-Glo 2D metabolic activity assay, HEK293; assay type: cell-based; settings: Homo sapiens, 2D culture, 48 h
# Procedure: Figure S5 Homo-degradation effect in Dual-ligand PROTACs. HEK293 cells were treated with all synthesized PROTACs or 2V-alkyne/2P-alkyne for 4 hours. Subsequently, cell lysates were prepared and the protein levels of CRBN or VHL E3 ligase were assessed by Western blotting. (A) Representative image of CRBN or VHL E3 ligase homo-degradation was screened for all PROTACs and commercial single-ligand PROTACs at a concentration of 0.1, 1 and 10 µM, respectively (equivalent volume of DMSO as control group). (B) Representative image of CRBN or VHL E3 ligase homo-degradation was screened for 2P-alkyne or 2V-alkyne at a concentration of 0.1, 1 and 10 µM, respectively (equivalent volume of DMSO as control group). Experiments were performed as three independent replicates.
# as §1
# HEK293, HCT116, A549,andSKOV-3 cells were seeded in 96-well tissue culture plates at a density of 2000-3000 cells per well in 100 µl of growth medium and incubated overnight at 37 °C with 5% CO2. The following day, the cells were treated with various concentrations of compounds or 0.05% DMSO for 48 h. […] Luminescence readout (Gen5 Data Analysis Software v3.08.01) was performed to record luminescence. […]
# [6] = test system: HCT116 cells; experiment: CellTiter-Glo 2D metabolic activity assay, HCT116; assay type: cell-based; settings: Homo sapiens, HCT-116, 2D culture, 48 h
# Procedure: as §1, §2, §3
# [7] = test system: A549 spheroids; experiment: CellTiter-Glo 3D assay on spheroids; assay type: cell-based; settings: Homo sapiens, 72 h, read-out: EC50, spheroid metabolic activity
# Procedure: 4.5 Cell viability assay on 3D cell cultures
# The single cell suspension containing 2.5 ×10^4 cells/ml of A549 or 2 ×10^4 cells/ml of HCT116 were seeded into the U-shaped, 384-well ULA plates (cat. no. MS-9384UZ, S-bio), each well containing 80 μl single cell suspension. The 384-well ULA plates were sealed with Breath-Easy semipermeable tape (cat. no. BEM-1, Diversified Biotech) to prevent evaporation. The spheroids were put into incubator and then cultured at 37 °C and 10% CO2. After 48h of spheroids formation, the spheroids were treated with various concentrations of compounds or 0.05% DMSO. After 72h treatment, each spheroid in the culture medium was pipetted into white micro-96-well plates (cat. no. 236108, ThermoFisher) and an equal volume of Cell Titer-Glo 3D (cat. no. G9683, Promega) reagent was added. Luminescence readouts were the same as described above for 2D culture.
# [8] = test system: A549 cells; experiment: CellTiter-Glo 2D metabolic activity assay, A549; assay type: cell-based; settings: Homo sapiens, 2D culture, 48 h
# Procedure: as §1, §2, §3
# [9] = Parallel artificial membrane permeability assay (PAMPA); assay type: in vitro ADME; settings: 10 uM, pH 7.4, four hours
# Procedure: 4.9 Study of membrane permeability of single-ligand and dual-ligand PROTACs Parallel artificial membrane permeability assay (PAMPA) is a non-cell based assay designed to predict passive, transcellular permeability of a test compound through a PVDF membrane filter pretreated with lipid. At a given pH a log Pe (log of effective permeability) can be determined by a UV spectrophotometer. […]
# is carried out in the company of Eurofins Panlabs, 6 Research Park Dr. St. Charles, MO 63304, U.S.A. The results are attached as an excel file.
# Sample preparation The test compound is prepared from a 10 mM DMSO stock solution and diluted to a single final concentration of 10 uM in donor buffer. The donor solution is placed in contact with the acceptor buffer at a single pH = 7.4 with the membrane in between and the sandwich is incubated for four hours at ambient temperature.
# Reference compounds Ketoprofen, propranolol and furosemide. The reference compounds yield log Pe (10-6 cm/s) values that cover the typical range of the assay from high (Propranolol), mid (Ketoprofen) to low (Furosemide) permeability.
# Analytical method UV/Vis spectrophotometer
# The UV absorption is measured from 250 to 500 nm for both donor and acceptor plate.
# Adjustments to the method may be made as necessary to improve detection or UV spectrum.
# Data analysis The amount of compound UV absorbance is determined in the donor plate prior to starting the experiment for each compound. The UV absorbance was measured from the (1 picture or pasted object on this page, not shown here) […]
# donor and acceptor plate after a four hour incubation time. The log Pe was calculated using […]
# 4.10 Statistical Analysis.
# Data analyses were performed using GraphPad Prism 9 software. The results are presented as the mean ± standard deviation (SD) or standard error of mean (SEM). All statistical analyses were evaluated with one-way analysis of variance (ANOVAs), or unpaired Student’s t-test. The difference was considered statistically significant when P < 0.05.
SMILES,"protein degradation potency, controls with similar linker length [1]","metabolic inhibition, comparison [2]",CRBN level (homo-degradation) [3],further results
Cc1sc2c(c1C)C(c1ccc(Cl)cc1)=N[C@@H](CC(=O)NCCOCCOCCNC(=O)C[C@H](NC(=O)COCCOCCOCCOCCn1cc(CNc3cccc4c3C(=O)N(C3CCC(=O)NC3=O)C4=O)nn1)C(=O)NCCOCCOCCNC(=O)C[C@@H]1N=C(c3ccc(Cl)cc3)c3c(sc(C)c3C)-n3c(C)nnc31)c1nnc(C)n1-2 (stereo partly drawn) [2J1P],could still potently degrade the BRD proteins,higher metabolic inhibition compared to single-ligand PROTACs,,
C#CCCC(=O)N[C@@H](CC(=O)NCCOCCOCCNc1cccc2c1C(=O)N(C1CCC(=O)NC1=O)C2=O)C(=O)NCCOCCOCCNc1cccc2c1C(=O)N(C1CCC(=O)NC1=O)C2=O (stereo partly drawn) [2P-alkyne],,,did not induce any degradation of CRBN,
Cc1ncsc1-c1ccc(C(C)NC(=O)C2CC(O)CN2C(=O)C(NC(=O)CCc2cn(CCOCCOCCOCCOCC(=O)NC(CC(=O)NCCOCCOCCNC(=O)CC3N=C(c4ccc(Cl)cc4)c4c(sc(C)c4C)-n4c(C)nnc43)C(=O)NCCOCCOCCNC(=O)CC3N=C(c4ccc(Cl)cc4)c4c(sc(C)c4C)-n4c(C)nnc43)nn2)C(C)(C)C)cc1 (stereo not drawn) [2J1V],could still potently degrade the BRD proteins,higher metabolic inhibition compared to single-ligand PROTACs,,
Cc1ncsc1-c1ccc(C(C)NC(=O)C2CC(O)CN2C(=O)C(NC(=O)COCCOCCNC(=O)CC(NC(=O)CCc2cn(CCOCCOCCOCCNC(=O)CC3N=C(c4ccc(Cl)cc4)c4c(sc(C)c4C)-n4c(C)nnc43)nn2)C(=O)NCCOCCOCC(=O)NC(C(=O)N2CC(O)CC2C(=O)NC(C)c2ccc(-c3scnc3C)cc2)C(C)(C)C)C(C)(C)C)cc1 (stereo not drawn) [1J2V],,,,VHL homo-degradation [4]: did induce homo-degradation of VHL
Cc1sc2c(c1C)C(c1ccc(Cl)cc1)=N[C@@H](CC(=O)NCCOCCOCCOCCn1cc(CCC(=O)N[C@@H](CC(=O)NCCOCCOCCNc3cccc4c3C(=O)N(C3CCC(=O)NC3=O)C4=O)C(=O)NCCOCCOCCNc3cccc4c3C(=O)N(C3CCC(=O)NC3=O)C4=O)nn1)c1nnc(C)n1-2 (stereo partly drawn) [1J2P],,,did not induce any significant decrease of CRBN,
Cc1sc2c(c1C)C(c1ccc(Cl)cc1)=NC(CC(=O)NCCCCNC(=O)COc1cccc3c1C(=O)N(C1CCC(=O)NC1=O)C3=O)c1nnc(C)n1-2 (stereo not drawn) [dBET1],,,,EC50 [5]: 0.9 µM; EC50 [6]: > 10 µM; EC50 [7]: 7 µM; EC50 [8]: 2 µM; membrane permeability [9]: very limited membrane permeability
